Experimental data taken from publication PMC8268575 (International Journal of Molecular Sciences, 2021).
Entries after “also recorded” stand apart in the source; their conditions may differ.

Legend:
HUVEC = test: Substrate cleavage in HUVEC, supernatant analysed by MALDI-TOF/TOF; format: in vitro ADME, human; conditions: 100 µM substrate
Procedure: (§1) The experiment was independently conducted 4 times. […] The supernatants were desalted and concentrated by use of C18 ZipTips (Merck-Millipore, Burlington, MA, USA) and eluted directly on the MALDI target in 70% acetonitrile/0.1% TFA. Subsequently, a MALDI matrix solution of 2.5 mg/mL α-cyano-4-hydroxycinnamic acid in 70% acetonitrile/0.1% TFA was applied on each spot, air-dried at room temperature, and the target was introduced into a 4800 plus MALDI TOF/TOF^TM Analyzer. Mass spectrometry (MS) spectra (mass range: 600–4000 Da) were acquired in positive reflector mode with a laser intensity of 5000. To confirm the identity of the most important peptides, MS/MS spectra were generated by use of collision induced dissociation with a laser intensity of 5500. Calibration was done during analysis using the 6-peptide mixture (AB Sciex, Framingham, MA, USA). Mass spectra were generated by use of the 4000 Series Explorer and analyzed by mMas. […] The ratio of the peak intensity of the cleaved substrate to the peak intensity of the intact substrate is an indication for the C-terminal cleavage of the substrates. To check for additional cleavage sites, a search for other product peaks was completed. Statistical analysis was performed using SPSS software version 27 (IBM). Two-way ANOVA analysis was conducted to examine the effect of the two independent variables (treatment duration and treatment option) on the ratio of the peak intensities.

HAoEC = test: Substrate cleavage in HAoEC, supernatant analysed by MALDI-TOF/TOF; format: in vitro ADME, human
Procedure: as §1

recombinant human PREP = target: T1, recombinant human PREP (Homo sapiens, UniProt P48147); test: Cleavage by recombinant PREP, MALDI-TOF/TOF; conditions: pH 7.4 (0.1 M potassium phosphate, 1 mM EDTA, 5 mM DTT), 100 µM substrate, 0 s to 1 h
T1 sequence (P48147 1-710): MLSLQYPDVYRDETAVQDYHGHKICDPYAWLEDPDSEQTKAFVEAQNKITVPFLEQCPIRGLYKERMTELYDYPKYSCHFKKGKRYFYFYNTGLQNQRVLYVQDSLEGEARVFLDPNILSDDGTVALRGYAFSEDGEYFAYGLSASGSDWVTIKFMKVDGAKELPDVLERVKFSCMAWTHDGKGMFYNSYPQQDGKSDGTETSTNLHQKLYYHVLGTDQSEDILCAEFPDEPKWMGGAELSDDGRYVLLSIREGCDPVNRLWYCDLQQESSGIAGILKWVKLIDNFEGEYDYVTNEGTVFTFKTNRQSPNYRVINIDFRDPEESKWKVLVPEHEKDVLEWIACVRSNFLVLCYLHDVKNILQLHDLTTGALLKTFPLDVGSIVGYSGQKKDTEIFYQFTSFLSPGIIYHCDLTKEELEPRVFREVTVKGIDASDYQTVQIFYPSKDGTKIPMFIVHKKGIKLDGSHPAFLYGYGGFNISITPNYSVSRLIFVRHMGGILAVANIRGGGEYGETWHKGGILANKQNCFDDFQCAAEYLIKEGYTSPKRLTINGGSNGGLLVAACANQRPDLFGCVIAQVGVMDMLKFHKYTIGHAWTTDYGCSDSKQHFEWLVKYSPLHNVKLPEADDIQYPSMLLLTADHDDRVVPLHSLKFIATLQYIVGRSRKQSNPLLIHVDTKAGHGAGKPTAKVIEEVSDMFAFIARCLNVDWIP
Procedure: Supplementary Material File S3. Cleavage by recombinant PREP
Recombinant human PREP, expressed in BL21 (DE3) cells as previously described, was […]
(Laboratory for Medicinal Chemistry, University of Antwerp) or vehicle control at pH 7.4 (0.1 M potassium phosphate, 1 mM EDTA and 5 mM DTT). 100 μM substrate ((pyr)-apelin-13, (pyr)-apelin-13(1-12), Ang II or α-MSH 1-13) or vehicle control (PBS) was added. The reaction was stopped by acidification (pH<3) with 0.1% TFA after different time periods (0 s, 30 s, 1 min, 5 min, 15 min, 30 min or 1 h) and samples were stored at -80 °C.
A search for product peaks of the different peptides was conducted.
1. Van Elzen, R.; Schoenmakers, E.; Brandt, I.; Van Der Veken, P.; Lambeir, A.M.
Ligand-induced conformational changes in prolyl oligopeptidase: A kinetic approach.

[1] = target: T2, secreted PRCP in HUVEC supernatant (Homo sapiens, UniProt P42785); test: Incubation of (pyr)-apelin-13 with 24 h cellular supernatant of HUVEC; format: in vitro ADME; conditions: 100 µM substrate
T2 construct: endogenous in cells; host or cells: HUVEC and HAoEC (cell lysate and culture supernatant)
T2 sequence (P42785 46-496): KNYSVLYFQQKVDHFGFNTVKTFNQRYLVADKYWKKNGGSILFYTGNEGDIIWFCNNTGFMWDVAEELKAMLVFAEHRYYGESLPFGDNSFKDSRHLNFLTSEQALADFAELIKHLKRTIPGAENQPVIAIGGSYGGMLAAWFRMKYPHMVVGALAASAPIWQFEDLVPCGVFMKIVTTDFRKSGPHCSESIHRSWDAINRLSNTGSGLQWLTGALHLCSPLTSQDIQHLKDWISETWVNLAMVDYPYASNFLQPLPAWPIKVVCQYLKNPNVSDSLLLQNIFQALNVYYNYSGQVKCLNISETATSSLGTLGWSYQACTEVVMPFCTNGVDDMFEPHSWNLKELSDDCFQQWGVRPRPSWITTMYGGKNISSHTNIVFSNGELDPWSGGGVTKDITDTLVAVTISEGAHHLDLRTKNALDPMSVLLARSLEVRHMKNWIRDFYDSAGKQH
Procedure: Supplementary Material File S4. Incubation of (pyr)-apelin-13 with cellular supernatant HUVEC were seeded at a density of 10 000 cells per well in 96-well plates in 100 µL full medium. After 24 h, medium was replaced by assay medium and the cells were incubated for another 24 h at 37 °C in 5% CO2. After 24 h, cell supernatants were harvested and incubated with vehicle control (1% DMSO) or 1 µM compound 8o for 15 min at 37 °C. Then, 100 μM (pyr)-apelin-13 or vehicle control (PBS) was added. The reaction was stopped by acidification (pH<3) with 0.1% TFA after 1 h and the samples were stored at -80 °C until further processing.
The experiment was independently conducted 4 times. To detect the cleavage of (pyr)-apelin-13 (m/z 1533.8), the samples were analysed by MALDI-TOF/TOF.
However, comparing this experiment with the initial experiment where (pyr)-apelin-13 was added to the cells for 24 h (Figure 1 of main manuscript), much less (pyr)-apelin-13 was […]
terminal (pyr)-apelin-13 cleavage seen in the initial experiment.
Figure S4.1: Incubation of 24 h cellular supernatant with (pyr)-apelin-13 during 1 h. (Pyr)- […]
(1 picture or pasted object on this page, not shown here)

[2] = plasma; cited from earlier work
Text: Although (pyr)-apelin-13 has increased stability and a longer plasma half-life in comparison with the non-pyroglutamated isoforms, it still has a short half-life of only minutes. Angiotensin-converting enzyme 2 (ACE2, EC 3.4.17.23) was always considered to be the only enzyme responsible for the hydrolysis of the C-terminal Phe of (pyr)-apelin-13 [28, 29, 30], until we identified PRCP as an apelin-cleaving enzyme in 2016, during the search for new PRCP-substrates based on amino acid sequence. Although many efforts were made to elucidate the importance of this C-terminal P ...

SMILES: CSCC[C@H](NC(=O)[C@@H]1CCCN1C(=O)CNC(=O)[C@H](CCCCN)NC(=O)[C@H](Cc1cnc[nH]1)NC(=O)[C@H](CO)NC(=O)[C@H](CC(C)C)NC(=O)[C@H](CCCNC(=N)N)NC(=O)[C@@H]1CCCN1C(=O)[C@H](CCCNC(=N)N)NC(=O)[C@@H]1CCC(=O)N1)C(=O)N1CCC[C@H]1C(=O)N[C@@H](Cc1ccccc1)C(=O)O [(pyr)-apelin-13]
- C-terminal cleavage of (pyr)-apelin-13 to (pyr)-apelin-13(1–12), ratio of peak intensities in the supernatant (HUVEC; HUVEC 10,000 cells/well, assay medium (5% full medium in HBSS), 37 °C, 0/2/4/8/24 h, all treatment groups, MALDI-TOF/TOF, n = 4): significant after 24 h
- Enzyme dependence of cleavage of (pyr)-apelin-13 to (pyr)-apelin-13(1–12) (HUVEC; HUVEC pre-treated 15 min with 1 µM compound 8o (PRCP) and/or 1 µM DX600 (ACE2), 24 h, n = 4): PRCP-dependent
- Cleavage of (pyr)-apelin-13 to (pyr)-apelin-13(1-6) (HUVEC; HUVEC, MALDI-TOF/TOF): could not be detected
- C-terminal cleavage of (pyr)-apelin-13 to (pyr)-apelin-13(1–12), ratio of peak intensities in the supernatant (HAoEC; HAoEC 10,000 cells/well, 100 µM substrate, assay medium (5% full medium in HBSS), 37 °C, 0/2/4/8/24 h, all treatment groups, MALDI-TOF/TOF, n = 4): significant after 24 h
- Enzyme dependence of cleavage of (pyr)-apelin-13 to (pyr)-apelin-13(1–12) (HAoEC; HAoEC pre-treated 15 min with 1 µM compound 8o (PRCP) and/or 1 µM DX600 (ACE2), 100 µM substrate, 24 h, n = 4): PRCP- and ACE2-dependent
- Involvement of PRCP and ACE2 in cleavage of (pyr)-apelin-13 to (pyr)-apelin-13(1-6) (HAoEC; HAoEC, 1 µM compound 8o and/or 1 µM DX600, data not shown): none of the studied enzymes were involved
- Cleavage of (pyr)-apelin-13 to (pyr)-apelin-13(1-6) (HAoEC; HAoEC, all treatment groups, 100 µM substrate, MALDI-TOF/TOF, data not shown): significant from 8 h onwards
- C-terminal cleavage of (pyr)-apelin-13 to (pyr)-apelin-13(1–12), earliest observable time (HAoEC; control, PRCP-inhibited and ACE2-inhibited HAoEC, 100 µM substrate, 37 °C, MALDI-TOF/TOF, n = 4): already observable after 8 h
- Cleavage by recombinant human PREP (recombinant human PREP): did not cleave; also recorded: could not observe
- C-terminal cleavage of (pyr)-apelin-13 in cell-free 24 h HUVEC supernatant ([1]; 1 h, 37 °C, MALDI-TOF/TOF, 4 independent experiments): cleaved at its C-terminus after 1 h
- Extent of PRCP-mediated cleavage in cell-free HUVEC supernatant compared with the cellular experiment ([1]; 1 h versus 24 h with cells): to a much lesser extent
- half-life [2]: only minutes
